Experiment: Release kinetics in solution: t1/2, time for one half of the molecule to cleave and release the azole moiety
Format: physicochemical
Source text: The release kinetics in solution of the compounds of the invention vary over a wide range.
*rate of hydrolysis approximates rate of release
**measured in 50% ethanol/water solution
***solution was 0.022N in KOH

[1] = 1×10^-4 molar in 30% acetonitrile/0.25 N aqueous KOH, 22°±0.1° C., release of azole moiety

| SMILES | t1/2 [1] [s] | also measured |
| --- | --- | --- |
| Cc1ccc(Nc2nnc([Se]Cc3c[nH]c(=O)[nH]c3=O)[se]2)cc1 [Compound XIX] | – | t1/2 (measured in 50% ethanol/water solution, 22° C.): 48.8 s |
| Cn1c(=O)[nH]cc(CSc2nnnn2-c2ccc(O)cc2)c1=O [Compound XI] | 4.0 | – |
| O=c1[nH]cc(CSc2ncccn2)c(=O)[nH]1 [Compound XVIII] | 35.9 | – |
| O=c1[nH]cc(CSc2ncnc3[nH]cnc23)c(=O)[nH]1 [Compound XVII] | 77.8 | – |
| CC(=NO)c1ccc(-n2nnnc2SCc2c[nH]c(=O)n(C)c2=O)cc1 [Compound XXVI] | 0.87 | – |
| CC(=O)n1c(=O)[nH]cc(Cn2nnn(-c3ccccc3)c2=S)c1=O [Compound XXXI] | 911 | – |
| CC(=O)Oc1ccc(-n2nnnc2SCc2c[nH]c(=O)[nH]c2=O)cc1 [Compound XX] | – | t1/2 (hydrolysis) (hydrolysis, 30% acetonitrile/0.25 N aqueous KOH, 22° C.): 2.5 s |
| O=c1[nH]cc(Cn2nc(-c3ccccc3)oc2=S)c(=O)[nH]1 [Compound X] | 1080 | – |
| Cn1c(=O)[nH]cc(CSc2nnnn2-c2ccccc2)c1=O [II] | 0.81 | – |
| Cn1c(=O)[nH]cc(Cn2nnn(-c3ccccc3)c2=S)c1=O [VIII] | 1512 | – |
| O=c1[nH]cc(Cn2nnn(-c3ccccc3)c2=S)c(=O)[nH]1 [VII] | 900 | – |
| CC(=O)Oc1ccc(-n2nnnc2SCc2c[nH]c(=O)n(C)c2=O)cc1 [V] | – | t1/2 (30% acetonitrile/0.25 N aqueous KOH, 22° C., rate of hydrolysis approximates rate of release): 1.8 to 4.0 s |
| O=C(c1ccccc1)n1c(=O)[nH]cc(CSc2nnnn2-c2ccccc2)c1=O [XII] | 31.2 | – |
| O=c1[nH]cc(Cn2nc(-c3cccs3)oc2=S)c(=O)[nH]1 [XIV] | 4320 | – |

Reference: patent US4350754A, “Blocked development restrainers” (Polaroid Corporation, priority 1981, dated 1982)
